Results taken from PubChem BioAssay AID248 (DTP/NCI, 2004).
Values joined by “and” are separate entries in the source; they are usually repeats but may differ in a detail not shown here. Identical values can stand only once. Toxic doses and inconclusive results are not listed. No stated cut-off is given here; in the data, active means T/C of 150% or more; inactive means T/C below 125%.

Tested on: L1210 leukemia ip in BDF1 mice, survival T/C
Assay: NCI In Vivo Anticancer Drug Screen. Data for tumor model L1210 Leukemia (intraperitoneal) in B6D2F1 (BDF1) mice
Conditions: endpoint: mean survival time, higher = longer survival
Outline: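 Each compound was tested against a transplantable tumor grown in mice. The endpoint was survival, with treated animals benchmarked against vehicle controls as a simple ratio.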

[1] = dose: 50.0 mg/kg/injection, schedule: Q01DX009 (ip), vehicle: saline with Tween-80
[2] = dose: 100.0 mg/kg/injection, schedule: Q04DX003 (ip), vehicle: Klucel (hydroxypropylcellulose) (HPC)
[3] = dose: 200.0 mg/kg/injection, schedule: Q04DX003 (ip), vehicle: Klucel (hydroxypropylcellulose) (HPC)
[4] = dose: 400.0 mg/kg/injection, schedule: Q04DX003 (ip), vehicle: Klucel (hydroxypropylcellulose) (HPC)
[5] = dose: 100.0 mg/kg/injection, schedule: Q04DX003 (ip), vehicle: saline
[6] = dose: 200.0 mg/kg/injection, schedule: Q04DX003 (ip), vehicle: saline
[7] = dose: 400.0 mg/kg/injection, schedule: Q04DX003 (ip), vehicle: saline
[8] = dose: 50.0 mg/kg/injection, schedule: Q01DX001 (ip), vehicle: saline
[9] = dose: 100.0 mg/kg/injection, schedule: Q01DX001 (ip), vehicle: saline
[10] = dose: 200.0 mg/kg/injection, schedule: Q01DX001 (ip), vehicle: saline
[11] = dose: 400.0 mg/kg/injection, schedule: Q01DX001 (ip), vehicle: saline
[12] = dose: 50.0 mg/kg/injection, schedule: Q04DX003 (ip), vehicle: saline
[13] = dose: 100.0 mg/kg/injection, schedule: Q01DX001 (ip), vehicle: carboxymethylcellulose (CMC)
[14] = dose: 200.0 mg/kg/injection, schedule: Q01DX001 (ip), vehicle: carboxymethylcellulose (CMC)
[15] = dose: 400.0 mg/kg/injection, schedule: Q01DX001 (ip), vehicle: carboxymethylcellulose (CMC)
[16] = dose: 100.0 mg/kg/injection, schedule: Q04DX002 (ip), vehicle: saline with Tween-80
[17] = dose: 200.0 mg/kg/injection, schedule: Q04DX002 (ip), vehicle: saline with Tween-80
[18] = dose: 100.0 mg/kg/injection, schedule: Q01DX009 (ip), vehicle: Klucel (hydroxypropylcellulose) (HPC)
[19] = dose: 200.0 mg/kg/injection, schedule: Q01DX009 (ip), vehicle: Klucel (hydroxypropylcellulose) (HPC)
[20] = dose: 100.0 mg/kg/injection, schedule: Q01DX009 (ip), vehicle: saline with Tween-80
[21] = dose: 200.0 mg/kg/injection, schedule: Q01DX009 (ip), vehicle: saline with Tween-80
[22] = dose: 100.0 mg/kg/injection, schedule: Q04DX003 (ip), vehicle: saline with Tween-80
[23] = dose: 200.0 mg/kg/injection, schedule: Q04DX003 (ip), vehicle: saline with Tween-80
[24] = dose: 400.0 mg/kg/injection, schedule: Q01DX009 (ip), vehicle: Klucel (hydroxypropylcellulose) (HPC)

Measured: T/C

O=C(NC(Cc1ccccc1)C(=O)CCl)OCc1ccccc1 (centres undefined)
inactive: dose: 25.0 mg/kg/injection, schedule: Q01DX009 (ip), vehicle: saline with Tween-80 115 % of control | dose: 25.0 mg/kg/injection, schedule: Q04DX002 (ip), vehicle: other 107 % of control | [1] 95 % of control | dose: 50.0 mg/kg/injection, schedule: Q04DX002 (ip), vehicle: other 93 % of control | dose: 100.0 mg/kg/injection, schedule: Q04DX002 (ip), vehicle: other 104 % of control | dose: 100.0 mg/kg/injection, schedule: Q04DX003 (ip), vehicle: saline sonified 108 % of control

CC(=O)Nc1cc([N+](=O)[O-])ccc1O
inactive: [2] 101 % of control | [3] 101 % of control | [4] 101 % of control

O=C(O)C1(C(=O)O)CC23CCC2(C1)CC(C(=O)O)(C(=O)O)C3 (centres undefined)
inactive: [5] 95 % of control | [6] 97 % of control | [7] 103 % of control

C/C(=N/N)c1ccccc1O
inactive: dose: 25.6 mg/kg/injection, schedule: Q04DX002 (ip), vehicle: saline 88 % of control | dose: 160.0 mg/kg/injection, schedule: Q04DX002 (ip), vehicle: saline 92 % of control

COB(OC)OC
inactive: [8] 98 % of control | [9] 95 % of control | [10] 101 % of control | [11] 95 % of control

CCCCCC(CN(C)C)C(O)/C=C/c1ccccc1Cl (centres undefined)
inactive: dose: 25.0 mg/kg/injection, schedule: Q01DX009 (ip), vehicle: saline 102 % of control | dose: 25.0 mg/kg/injection, schedule: Q04DX003 (ip), vehicle: saline 96 % of control | dose: 50.0 mg/kg/injection, schedule: Q01DX009 (ip), vehicle: saline 94 % of control | [12] 97 % of control | [5] 95 % of control and 88 % of control

COC(C)(C)CN(CCCNC(=S)Nc1ccccc1)C(=S)Nc1ccccc1
inactive: dose: 50.0 mg/kg/injection, schedule: Q01DX001 (ip), vehicle: carboxymethylcellulose (CMC) 103 % of control | [13] 97 % of control | [14] 86 % of control | [15] 93 % of control

O=[N+]([O-])c1ccccc1NC1OC(CO)C(O)C1O (centres undefined)
inactive: [16] 102 % of control | [17] 98 % of control | dose: 400.0 mg/kg/injection, schedule: Q04DX002 (ip), vehicle: saline with Tween-80 102 % of control

CCOc1ccc(N=C=S)cc1
inactive: [9] 93 % of control | [10] 98 % of control | [11] 102 % of control

Cc1ccc(C(=O)OCC2OC(Cl)CC2OC(=O)c2ccc(C)cc2)cc1 (centres undefined)
inactive: [12] 107 % of control | [5] 102 % of control | [6] 91 % of control | [7] 98 % of control

O=S(=O)(c1ccccc1)C1CC1c1ccc(Cl)cc1 (centres undefined)
inactive: [9] 97 % of control | [5] 104 % of control | [10] 92 % of control | [6] 96 % of control | [11] 98 % of control | [7] 96 % of control

Cc1cccc([P+](Cc2ccccc2)(c2cccc(C)c2)c2cccc(C)c2)c1
inactive: dose: 15.0 mg/kg/injection, schedule: Q01DX001 (ip), vehicle: carboxymethylcellulose (CMC) 90 % of control

Cc1ncc(CO)n1Cc1ccccc1
inactive: dose: 100.0 mg/kg/injection, schedule: Q01DX001 (ip), vehicle: Klucel (hydroxypropylcellulose) (HPC) 104 % of control | dose: 200.0 mg/kg/injection, schedule: Q01DX001 (ip), vehicle: Klucel (hydroxypropylcellulose) (HPC) 104 % of control | dose: 400.0 mg/kg/injection, schedule: Q01DX001 (ip), vehicle: Klucel (hydroxypropylcellulose) (HPC) 114 % of control

Cc1cccc(OCC(O)CN2CCN(c3ccccc3)CC2)c1 (centres undefined)
inactive: dose: 50.0 mg/kg/injection, schedule: Q01DX009 (ip), vehicle: Klucel (hydroxypropylcellulose) (HPC) 104 % of control | [18] 101 % of control | [19] 115 % of control

Cn1c(=O)c2c(nc(C3CC3)n2C)n(C)c1=O
inactive: dose: 50.0 mg/kg/injection, schedule: Q01DX001 (ip), vehicle: other 112 % of control | dose: 100.0 mg/kg/injection, schedule: Q01DX001 (ip), vehicle: other 95 % of control | dose: 200.0 mg/kg/injection, schedule: Q01DX001 (ip), vehicle: other 95 % of control

O=C(NO)C(=O)NCc1ccccc1
inactive: [13] 90 % of control | [14] 96 % of control | [15] 96 % of control

O=C(c1ccccc1)C(C(C(=O)c1ccccc1)N1CCOCC1)N1CCOCC1 (centres undefined)
inactive: [8] 94 % of control | [9] 94 % of control | [10] 102 % of control | [11] 94 % of control

ClC1(Cl)CC1c1ccccc1 (centres undefined)
inactive: [20] 101 % of control | [21] 91 % of control

O=C(O)C1C(c2ccccc2)CC(=O)N1c1ccc(Cl)cc1 (centres undefined)
inactive: dose: 100.0 mg/kg/injection, schedule: Q04DX002 (ip), vehicle: Klucel (hydroxypropylcellulose) (HPC) 102 % of control | dose: 200.0 mg/kg/injection, schedule: Q04DX002 (ip), vehicle: Klucel (hydroxypropylcellulose) (HPC) 91 % of control | dose: 400.0 mg/kg/injection, schedule: Q04DX002 (ip), vehicle: Klucel (hydroxypropylcellulose) (HPC) 94 % of control

O=C(C=C(C(F)(F)F)C(F)(F)F)c1ccc(F)cc1
inactive: dose: 6.25 mg/kg/injection, schedule: Q01DX009 (ip), vehicle: other 91 % of control | dose: 6.25 mg/kg/injection, schedule: Q04DX003 (ip), vehicle: other 95 % of control | dose: 12.5 mg/kg/injection, schedule: Q01DX009 (ip), vehicle: other 92 % of control | dose: 12.5 mg/kg/injection, schedule: Q04DX003 (ip), vehicle: other 109 % of control | dose: 25.0 mg/kg/injection, schedule: Q01DX009 (ip), vehicle: other 103 % of control | dose: 25.0 mg/kg/injection, schedule: Q04DX003 (ip), vehicle: other 97 % of control and 103 % of control

OCCN1CCC2(CC1)SSC1(CCN(CCO)CC1)S2
inactive: [1] 104 % of control | [20] 98 % of control | [22] 100 % of control | [21] 93 % of control | [23] 104 % of control

OC1CCCC/C1=C/c1ccccc1 (centres undefined)
inactive: [18] 101 % of control | [2] 103 % of control | [19] 101 % of control | [3] 101 % of control | [24] 101 % of control | [4] 95 % of control

COc1ccc(Nc2cc(N)nc(N)n2)cc1
inactive: dose: 25.0 mg/kg/injection, schedule: Q01DX Z (ip), vehicle: methylcellulose (MC) 93 % of control | dose: 50.0 mg/kg/injection, schedule: Q01DX Z (ip), vehicle: methylcellulose (MC) 87 % of control

Nc1nnnn1-c1ccc2ccccc2c1
inactive: [22] 101 % of control | [23] 97 % of control | dose: 400.0 mg/kg/injection, schedule: Q04DX003 (ip), vehicle: saline with Tween-80 101 % of control

CC1=CC2(C)CCC(=O)C(Cc3c(CCCC4(C)OCCO4)noc3C)=C2CC1 (centres undefined)
inactive: [2] 95 % of control | [3] 95 % of control | [4] 91 % of control

C=C=CC(C)(C)C
inactive: [9] 96 % of control | [10] 96 % of control | [6] 100 % of control | [11] 96 % of control | [7] 100 % of control

COc1cc(NCCS(C)(=O)=O)ccc1C(=O)Nc1ccccc1
inactive: [18] 105 % of control | [2] 97 % of control | [19] 97 % of control | [3] 94 % of control | [24] 101 % of control | [4] 94 % of control

C/C(=C\COc1ccc(C)cc1)CC/C=C(\C)CCC1OC1(C)C (centres undefined)
inactive: dose: 50.0 mg/kg/injection, schedule: Q04DX002 (ip), vehicle: saline with Tween-80 108 % of control | [16] 108 % of control | [17] 92 % of control
